The record followed here is patent publication US20220177508A1, “C10-Cyclic Substituted 13-Membered Macrolides and Uses Thereof” (Zikani Therapeutics, Inc., priority 2018, published 2022).

In brackets after ≈: the same amount, converted by molar mass. Like-named read-outs stand apart in the source and are kept apart here.

For data set [1] the following is noted: ester bond, chlorobenzene.
The test system of another data set is E. coli MP-4. Put plainly: Broth dilution MIC determination (CLSI), E. coli MP-4. The format is cell-based. The settings on record: strain MP-4, broth dilution; for MIC: Escherichia coli, MP4, read-out: MIC E. coli MP-4.
Another data set has as its system K. pneumoniae MP-648. Put plainly: Broth dilution MIC determination (CLSI), K. pneumoniae MP-648. Type of data set: cell-based. The settings on record: strain MP-648, broth dilution; for MIC: Klebsiella pneumoniae, MP648.
The subject of another data set is A. baumannii MP-15. Put plainly: Broth dilution MIC determination (CLSI), A. baumannii MP-15. Type of data set: cell-based. Particulars: strain MP-15, broth dilution; for MIC: Acinetobacter baumannii, MP15, read-out: MIC A. baumanii MP-15. For orientation: Dilution methods test growth across graded concentrations, often in twofold steps.
For another data set, the system named is K. pneumoniae MP-546. Put plainly: Broth dilution MIC determination (CLSI), K. pneumoniae MP-546. The format is cell-based. The settings on record: strain MP-546, broth dilution; for MIC: Klebsiella pneumoniae, MP546.
In another data set the test system is P. aeruginosa MP-3. Put plainly: Broth dilution MIC determination (CLSI), P. aeruginosa MP-3. Type of data set: cell-based. The settings on record: strain MP-3, broth dilution; for MIC: Pseudomonas aeruginosa, MP3.
In another data set the test system is S. aureus MP-12. Put plainly: Broth dilution MIC determination (CLSI), S. aureus MP-12. Type of data set: cell-based. The settings on record: strain MP-12, broth dilution; for MIC: Staphylococcus aureus, MP12.

For `CO[C@]1(C)C[C@@H](C)CN(C(=O)OCc2ccccc2)[C@H](C2CCN(C(=O)OC(C)(C)C)CC2)COC(=O)[C@H](C)C(=O)[C@H](C)[C@H]1O[C@@H]1O[C@H](C)C[C@H](N(C)C)[C@H]1OC(=O)c1ccccc1`, the ring closure, yield of all isomers in data set [1] (from CO[C@](C)(C[C@@H](C)CN(C(=O)OCc1ccccc1)[C@@H](CO)C1CCN(C(=O)OC(C)(C)C)CC1)[C@H](O[C@@H]1O[C@H](C)C[C@H](N(C)C)[C@H]1OC(=O)c1ccccc1)[C@@H](C)C1=C(C)C(=O)OC(C)(C)O1, 3.15 mM, 148.0 °C, 23.0 h) was found to be 29%.
The compound `CO[C@]1(C)C[C@@H](C)CN(C)[C@H](c2ccc(Br)cc2)COC(=O)C(C)C(=O)[C@H](C)[C@H]1O[C@@H]1O[C@H](C)C[C@H](N(C)C)[C@H]1OC(=O)c1ccccc1` (some centres unmarked) had a ring closure, yield of all isomers in data set [1] (from CO[C@](C)(C[C@@H](C)CN(C)[C@@H](CO)c1ccc(Br)cc1)[C@H](O[C@@H]1O[C@H](C)C[C@H](N(C)C)[C@H]1OC(=O)c1ccccc1)[C@@H](C)C1=C(C)C(=O)OC(C)(C)O1, 4.0 mM, 165.0 °C, 20.0 h) of 99%.
One may read the MIC as the lowest concentration that inhibits growth of the organism. Turning to `CO[C@]1(C)C[C@@H](C)CN(C)[C@H](C2CN(CC3CCCO3)C2)COC(=O)C(C)(C)C(=O)[C@H](C)[C@H]1O[C@@H]1O[C@H](C)C[C@H](N(C)C)[C@H]1O` (stereo partly drawn) [Compound 164, (3R,6R,8R,9R,10R)-9-(((2S,3R,4S,6R)-4-(dimethylamino)-3-hydroxy-6-methyltetrahydro-2H-pyran-2-yl)oxy)-8-methoxy-4,6,8,10,12,12-hexamethyl-3-(1-((tetrahydrofuran-2-yl)methyl)azetidin-3-yl)-1-oxa-4-azacyclotridecane-11,13-dione], the MIC with E. coli MP-4 was < 4 µg/mL; against K. pneumoniae MP-648, 4 to 32 µg/mL (≈ 6.25 to 50 µM); in the data set with A. baumannii MP-15 it was > 32 µg/mL; against K. pneumoniae MP-546, < 4 µg/mL; with P. aeruginosa MP-3 it was > 32 µg/mL; in the data set on S. aureus MP-12, 4 to 32 µg/mL (≈ 6.25 to 50 µM).
For the compound `CCN(C)[C@H]1C[C@@H]([C@@H]2COC(=O)C(C)(C)C(=O)[C@H](C)[C@@H](O[C@@H]3O[C@H](C)C[C@H](N(C)C)[C@H]3O)[C@](C)(OC)C[C@@H](C)CN2C)C1` [Compound 165, (3R,6R,8R,9R,10R)-9-(((2S,3R,4S,6R)-4-(dimethylamino)-3-hydroxy-6-methyltetrahydro-2H-pyran-2-yl)oxy)-3-((1s,3S)-3-(ethyl(methyl)amino)cyclobutyl)-8-methoxy-4,6,8,10,12,12-hexamethyl-1-oxa-4-azacyclotridecane-11,13-dione], the MIC in the data set with E. coli MP-4 is < 4 µg/mL; against K. pneumoniae MP-648, 4 to 32 µg/mL (≈ 6.54 to 52.3 µM); with A. baumannii MP-15, > 32 µg/mL; in the data set with K. pneumoniae MP-546 it was 4 to 32 µg/mL (≈ 6.54 to 52.3 µM); in the data set with P. aeruginosa MP-3 it was > 32 µg/mL; with S. aureus MP-12, > 32 µg/mL.
On to `CO[C@]1(C)C[C@@H](C)CN(C)[C@H](C2CN(C(=O)[C@H]3CCN(C)C3)C2)COC(=O)C(C)(C)C(=O)[C@H](C)[C@H]1O[C@@H]1O[C@H](C)C[C@H](N(C)C)[C@H]1O` [Compound 168, (3R,6R,8R,9R,10R)-9-(((2S,3R,4S,6R)-4-(dimethylamino)-3-hydroxy-6-methyltetrahydro-2H-pyran-2-yl)oxy)-8-methoxy-4,6,8,10,12,12-hexamethyl-3-(1-((S)-1-methylpyrrolidine-3-carbonyl)azetidin-3-yl)-1-oxa-4-azacyclotridecane-11,13-dione], for which the MIC with E. coli MP-4 is < 4 µg/mL; with K. pneumoniae MP-648 it was > 32 µg/mL; in the data set on A. baumannii MP-15, > 32 µg/mL; against K. pneumoniae MP-546 it was 4 to 32 µg/mL (≈ 6 to 48 µM); against P. aeruginosa MP-3 it was > 32 µg/mL; against S. aureus MP-12, 4 to 32 µg/mL (≈ 6 to 48 µM).
In the case of `CO[C@]1(C)C[C@@H](C)CN(C)[C@H](C2CN(Cc3ccncc3)C2)COC(=O)C(C)(C)C(=O)[C@H](C)[C@H]1O[C@@H]1O[C@H](C)C[C@H](N(C)C)[C@H]1O` [Compound 176, (3R,6R,8R,9R,10R)-9-(((2S,3R,4S,6R)-4-(dimethylamino)-3-hydroxy-6-methyltetrahydro-2H-pyran-2-yl)oxy)-8-methoxy-4,6,8,10,12,12-hexamethyl-3-(1-(pyridin-4-ylmethyl)azetidin-3-yl)-1-oxa-4-azacyclotridecane-11,13-dione], the MIC in the data set with E. coli MP-4 is 4 to 32 µg/mL (≈ 6.18 to 49.5 µM); in the data set on K. pneumoniae MP-648, > 32 µg/mL; in the data set with A. baumannii MP-15, > 32 µg/mL; with K. pneumoniae MP-546, 4 to 32 µg/mL (≈ 6.18 to 49.5 µM); in the data set with P. aeruginosa MP-3 it was > 32 µg/mL; against S. aureus MP-12, 4 to 32 µg/mL (≈ 6.18 to 49.5 µM).
In the case of `CO[C@]1(C)C[C@@H](C)CN(C)[C@H](C2CN(Cc3cncnc3)C2)COC(=O)C(C)(C)C(=O)[C@H](C)[C@H]1O[C@@H]1O[C@H](C)C[C@H](N(C)C)[C@H]1O` [Compound 177, (3R,6R,8R,9R,10R)-9-(((2S,3R,4S,6R)-4-(dimethylamino)-3-hydroxy-6-methyltetrahydro-2H-pyran-2-yl)oxy)-8-methoxy-4,6,8,10,12,12-hexamethyl-3-(1-(pyrimidin-5-ylmethyl)azetidin-3-yl)-1-oxa-4-azacyclotridecane-11,13-dione], the minimum inhibitory concentration (MIC) in the data set with E. coli MP-4 is 4 to 32 µg/mL (≈ 6.17 to 49.4 µM); with K. pneumoniae MP-648, > 32 µg/mL; in the data set with A. baumannii MP-15, > 32 µg/mL; in the data set with K. pneumoniae MP-546 it was 4 to 32 µg/mL (≈ 6.17 to 49.4 µM); in the data set on P. aeruginosa MP-3, > 32 µg/mL; with S. aureus MP-12, 4 to 32 µg/mL (≈ 6.17 to 49.4 µM).
As for `CO[C@]1(C)C[C@@H](C)CN(C)[C@H](C2CN(C(=O)CCCN(C)CC(C)C)C2)COC(=O)C(C)(C)C(=O)[C@H](C)[C@H]1O[C@@H]1O[C@H](C)C[C@H](N(C)C)[C@H]1O` [Compound 178, (3R,6R,8R,9R,10R)-9-(((2S,3R,4S,6R)-4-(dimethylamino)-3-hydroxy-6-methyltetrahydro-2H-pyran-2-yl)oxy)-3-(1-(4-(isobutyl(methyl)amino)butanoyl)azetidin-3-yl)-8-methoxy-4,6,8,10,12,12-hexamethyl-1-oxa-4-azacyclotridecane-11,13-dione], the MIC was < 4 µg/mL with E. coli MP-4; 4 to 32 µg/mL (≈ 5.63 to 45 µM) against K. pneumoniae MP-648; > 32 µg/mL with A. baumannii MP-15; 4 to 32 µg/mL (≈ 5.63 to 45 µM) with K. pneumoniae MP-546; > 32 µg/mL in the data set on P. aeruginosa MP-3; > 32 µg/mL with S. aureus MP-12.
`CO[C@]1(C)C[C@@H](C)CN(C)[C@H](C2CN(C(=O)[C@H]3CCNC3)C2)COC(=O)C(C)(C)C(=O)[C@H](C)[C@H]1O[C@@H]1O[C@H](C)C[C@H](N(C)C)[C@H]1O` [Compound 181, (3R,6R,8R,9R,10R)-9-(((2S,3R,4S,6R)-4-(dimethylamino)-3-hydroxy-6-methyltetrahydro-2H-pyran-2-yl)oxy)-8-methoxy-4,6,8,10,12,12-hexamethyl-3-(1-((S)-pyrrolidine-3-carbonyl)azetidin-3-yl)-1-oxa-4-azacyclotridecane-11,13-dione]: the MIC with E. coli MP-4 was 4 to 32 µg/mL (≈ 6.13 to 49 µM); in the data set on K. pneumoniae MP-648 it was > 32 µg/mL; with A. baumannii MP-15, > 32 µg/mL; in the data set on K. pneumoniae MP-546 it was > 32 µg/mL; with P. aeruginosa MP-3, > 32 µg/mL; against S. aureus MP-12, 4 to 32 µg/mL (≈ 6.13 to 49 µM).
Take `CO[C@]1(C)C[C@@H](C)CN(C)[C@H](C2CN(C(=O)CC(C)(C)CN(C)C)C2)COC(=O)C(C)(C)C(=O)[C@H](C)[C@H]1O[C@@H]1O[C@H](C)C[C@H](N(C)C)[C@H]1O` [Compound 183, (3R,6R,8R,9R,10R)-3-(1-(4-(dimethylamino)-3,3-dimethylbutanoyl)azetidin-3-yl)-9-(((2S,3R,4S,6R)-4-(dimethylamino)-3-hydroxy-6-methyltetrahydro-2H-pyran-2-yl)oxy)-8-methoxy-4,6,8,10,12,12-hexamethyl-1-oxa-4-azacyclotridecane-11,13-dione]: the MIC with E. coli MP-4 is < 4 µg/mL; against K. pneumoniae MP-648, 4 to 32 µg/mL (≈ 5.74 to 45.9 µM); with A. baumannii MP-15, > 32 µg/mL; against K. pneumoniae MP-546, 4 to 32 µg/mL (≈ 5.74 to 45.9 µM); in the data set with P. aeruginosa MP-3, > 32 µg/mL; in the data set with S. aureus MP-12, 4 to 32 µg/mL (≈ 5.74 to 45.9 µM).
As to `CO[C@]1(C)C[C@@H](C)CN(C)[C@H](C2CC(N(C)CC(C)C)C2)COC(=O)C(C)(C)C(=O)[C@H](C)[C@H]1O[C@@H]1O[C@H](C)C[C@H](N(C)C)[C@H]1O` (stereo partly drawn) [Compound 187, (3R,6R,8R,9R,10R)-9-(((2S,3R,4S,6R)-4-(dimethylamino)-3-hydroxy-6-methyltetrahydro-2H-pyran-2-yl)oxy)-3-((1S,3S)-3-(isobutyl(methyl)amino)cyclobutyl)-8-methoxy-4,6,8,10,12,12-hexamethyl-1-oxa-4-azacyclotridecane-11,13-dione], the “MIC E. coli MP-4” value against E. coli MP-4 is on record as “+++ (values less than or equal to 4 mg/L)”. For the same compound, in the data set with K. pneumoniae MP-648, the “MIC K. pneumoniae MP-648” value was “++ (values of greater than 4 mg/L and less than or equal to 32 mg/L)”. Moreover, in the data set with A. baumannii MP-15, the “MIC A. baumanii MP-15” value is “+ (values greater than 32 mg/L)”. Further, the “MIC K. pneumoniae MP-546” value with K. pneumoniae MP-546 is reported as “+++ (values less than or equal to 4 mg/L)”. Further, the “MIC P aeruginosa MP-3” value against P. aeruginosa MP-3 is “+ (values greater than 32 mg/L)”. In the data set with S. aureus MP-12, the “MIC S. aureus MP-12” value is on record as “+ (values greater than 32 mg/L)”.
